This is an account of results in patent US8846643B2, “Phosphonates with reduced toxicity for treatment of viral infections” (The Regents of the University of California, priority 2010, dated 2014).

Data set [1] deals with HCV genotype 1b replicon (BM4-5). Nature of the data set: anti-HCV activity in genotype 1b replicon (BM4-5). The note with it: for EC50: Hepatitis C virus; for Selectivity Index BM4-5 (1b): genotype 1b replicon. The data set is classed as cell-based, hepatitis C virus.
Data set [2] concerns HCV genotype 2a replicon (JFH-1). Nature of the data set: anti-HCV activity in genotype 2a replicon (JFH-1). The data set is classed as cell-based, hepatitis C virus. Conditions: for EC50: Hepatitis C virus, read-out: EC50 (μM) JFH-1 (2a); for Selectivity Index JFH-1 (2a): genotype 2a replicon. In general terms: In antiviral work, replicon cells carry a viral genome segment that copies itself.

Data set [3] has as its system HIV-1. The note with it: for anti-HIV activity (in words): HIV-1 infected MT-2 cells; for Selectivity Index: MT-2 cells, HIV-1.
The test system of the next data set is MT-2 cells. Kind of data set: cytotoxicity in MT-2 cells. The note with it: MT-2 cells.
Data set [4] has as its system HIV-1. Kind of data set: microbe, parasite or virus in culture.
For another data set, the system named is Huh 7.5 cells. Nature of the data set: cytotoxicity (CC50) in HCV replicon cells / Huh 7.5 liver cells. Conditions: cytotoxicity in replicon cells.
For data set [5], the target named is HIV-1 reverse transcriptase (Human immunodeficiency virus type 1 group M subtype B, UniProt P04585). Nature of the data set: HIV reverse transcriptase assay with primer-template pairs. The data set is classed as biochemical. Conditions: HIV-1 reverse transcriptase 50 nM, 37° C., 5 min. How it is done: (S)-MPMPA diphosphate was prepared as described in Example 56. Radiolabeled [γ-^32P]ATP and cordycepin triphosphate ([α-^32P]3′-deoxyATP) was purchased from PerkinElmer, and unlabeled deoxynucleoside triphosphates (dNTPs) were from Fermentas. RNA oligonucleotides were purchased from Sigma.
Oligonucleotide primer-template pairs were used as substrates for reverse transcriptase assays. Reverse transcriptase assays utilized RNA oligonucleotide templates. The primers were first end-labeled by using [γ-^32P]ATP and T4 polynucleotide kinase prior to annealing to the template strand. Various combinations of dNTPs and (S)-MPMPApp were added. […] After incubation of controls and (S)-MPMPA at 37° C. for 5 min, reaction mixtures were stopped by the addition of gel loading buffer [80% (v/v) formamide, 10 mM EDTA (pH 8.0), 1 mg/ml xylene cyanol FF, 1 mg/ml bromophenol blue]. Reaction products were resolved on 10% polyacrylamide gels and analyzed by phosphorimager analysis as previously described (Magee et al., 2005) using a Typhoon 9400 phosphorimager.).

A further data set concerns HIV-1NL43. Nature of the data set: HIV-1 replication in human peripheral blood mononuclear cells. The data set is classed as cell-based. Conditions: for activity against HIV-1 in human PBMCs (in words): HIV-1 infected human PBMCs.
A short description of data set [6]: cytotoxicity in human PBMCs.
Data set [7] can be described thus: antiviral activity and cytotoxicity of unmodified MPMPA (system not stated).
[8] abbreviates: BM4-5, read-out: EC50 (μM) BM4-5(1b).
[9] abbreviates: Human immunodeficiency virus 1, MT2, MT-2 cells infected with HIV-1.
[10] abbreviates: Human immunodeficiency virus 1, MT2.
The mark [11] stands for this setting: BM4-5, read-out: EC50 values, range.

Like-named read-outs stand apart in the source and are kept apart here. A value given as a limit tells only on which side of the number the result lay.

What is called EC50 is the concentration at which the effect is half-maximal. One may read the CC50 as the concentration giving 50% cytotoxicity. High values mean lower toxicity to the cells, low ones greater toxicity to the cells. With `CCCCCCCCCCCCCCCCOCCCOP(=O)(O)COC(COCC)Cn1cnc2c(N)ncnc21` (racemic) [Cmpd 18, hexadecyloxypropyl 9-(R,S)-[3-ethoxy-2-(phosphonomethoxy)propyl]adenine], the EC50 was 7.59 µM in data set [1] (setting [8]), 8.87 µM in data set [2] and over 10 µM in the data set with HIV-1 [4] (setting [9]). Moreover, the “anti-HIV activity (in words)” value in the data set with HIV-1 [3] was “loss of antiviral activity”. The CC50 was 23.6 ± 7.1 µM in the data set with MT-2 cells and 99 ± 0.5 µM with Huh 7.5 cells.
As for `CCCCCCCCCCCCCCCCOCCCOP(=O)(O)COC(COC(C)C)Cn1cnc2c(N)ncnc21` (racemic) [Cmpd 19, hexadecyloxypropyl 9-(R,S)-[3-isopropoxy-2-(phosphonomethoxy)propyl]adenine], the EC50 in [1] (setting [8]) was 51.2 ± 38.2 µM; in data set [2], 98.8 ± 20.8 µM; in the data set with HIV-1 [4] (setting [9]), over 10 µM. For the same compound, the “anti-HIV activity (in words)” value in the data set with HIV-1 [3] is listed as “loss of antiviral activity”. Also, the CC50 in the data set with MT-2 cells worked out at 30.3 ± 12.5 µM; in the data set on Huh 7.5 cells, 100 ± 20.8 µM.
`CCCCCCCCCCCCCCCCOCCCOP(=O)(O)COC(COCC)Cn1cnc2c(N)nc(N)nc21` (racemic) [Cmpd 26, Hexadecyloxypropyl (R,S)-9-[3-ethoxy-2-phosphonomethoxy)propyl-2,6-diaminopurine]: the EC50 in [1] (setting [8]) was 18.2 ± 7.09 µM; in data set [2], 19.5 ± 1.48 µM; in the data set on HIV-1 [4] (setting [9]) it was over 10 µM. In addition, the “Selectivity Index BM4-5 (1b)” value in [1] was over 8.2. Also, the “Selectivity Index JFH-1 (2a)” value in [2] was over 7.69. The “anti-HIV activity (in words)” value in the data set on HIV-1 [3] is given as “large loss of anti-HIV activity”. The CC50 was 30.7 ± 11.7 µM with MT-2 cells and over 150 µM in the data set on Huh 7.5 cells.
As to `CCCCCCCCCCCCCCCCOCCCOP(=O)(O)COC(COCC)Cn1cnc2c(=O)[nH]c(N)nc21` (racemic) [Cmpd 37, Hexadecyloxypropyl (R,S)-9-[3-ethoxy-2-phosphonomethoxy)propyl]guanine], the results for the EC50 (in data set [1] (setting [8]); in data set [2]; in the data set on HIV-1 [4] (setting [9])) were 25.5 ± 10.4 µM, 13.2 ± 3.45 µM and over 10 µM, respectively. In data set [1], the “Selectivity Index BM4-5 (1b)” value is reported as over 5.88. Further, the “Selectivity Index JFH-1 (2a)” value in data set [2] was over 11.4. Also, in the data set on HIV-1 [3], the “anti-HIV activity (in words)” value was “large loss of anti-HIV activity”. In addition, the CC50 is 14.9 ± 6.7 µM in the data set with MT-2 cells and over 150 µM with Huh 7.5 cells.
In the case of `COC[C@H](Cn1cnc2c(N)ncnc21)OCP(=O)(O)OP(=O)(O)OP(=O)(O)O` [(S)-MPMPA diphosphate], the “inhibition of HIV reverse transcriptase activity (in words)” value in data set [5] is given as “inhibited HIV reverse transcriptase activity by chain termination”.
On to `CCCCCCCCCCCCCCCCCCOCCOP(=O)(O)CO[C@@H](COC)Cn1cnc2c(N)ncnc21` [Cmpd 16, Octadecyloxyethyl (R)-9-[(3-methoxy-2-phosphonomethoxy)propyl]adenine], for which the EC50 in data set [1] (setting [8]) is 4.65 µM; in data set [2], 5.33 µM; with HIV-1 [4] (setting [9]) it was 4.8 ± 3 µM. Moreover, the “anti-HIV activity (in words)” value in the data set with HIV-1 [3] was “considerably less active and selective”. For the same compound, in the data set on Huh 7.5 cells, the CC50 was over 150 µM.
In the case of `CCCCCCCCCCCCCCCCOCCCOP(=O)(O)CO[C@H](COC)Cn1cnc2c(N)ncnc21` [Cmpd 17], the EC50 came out at 2.36 µM in data set [1] (setting [8]); 4.64 µM in data set [2]; 0.2 µM with HIV-1NL43 (Human immunodeficiency virus 1, PBMC, HIV-1NL43 in human PBMCs); 0.2 ± 0.26 µM in the data set with HIV-1 [4] (setting [10]). For the same compound, the “activity against HIV-1 in human PBMCs (in words)” value in the data set with HIV-1NL43 is “active and selective”. Besides, the “anti-HIV activity (in words)” value in the data set with HIV-1 [3] is “less active”. The values for the CC50 (with MT-2 cells; in [6]; in the data set on Huh 7.5 cells) were 32 ± 11 µM, over 10 µM and over 150 µM, respectively.
On to `CCCCCCCCCCCCCCCCCCOCCOP(=O)(O)CO[C@H](COC)Cn1cnc2c(N)nc(N)nc21` [Cmpd 23, Octadecyloxyethyl (S)-9-[(3-methoxy-2-phosphonomethoxy)propyl]2,6-diaminopurine], for which the EC50 turned out to be 20.1 ± 1.98 µM in data set [1] (setting [8]), 21.4 ± 1.3 µM in [2] and 0.23 ± 0.15 µM with HIV-1 [4] (setting [9]). The CC50 in the data set on MT-2 cells amounted to 18 ± 5.3 µM; with Huh 7.5 cells, 99 ± 13.4 µM.
As to `CCCCCCCCCCCCCCCCCCOCCOP(=O)(O)CO[C@@H](COC)Cn1cnc2c(N)nc(N)nc21` [Cmpd 24, Octadecyloxyethyl (R)-9-[(3-methoxy-2-phosphonomethoxy)propyl]2,6-diaminopurine], the EC50 in data set [1] (setting [8]) is 25.6 ± 4.23 µM; in [2] it was 25.8 ± 6.1 µM. The figures for the half-maximal cytotoxic concentration (CC50) with MT-2 cells and in the data set with Huh 7.5 cells were 19.7 ± 9.5 µM and over 150 µM, respectively.
As for `CCCCCCCCCCCCCCCCOCCCOP(=O)(O)CO[C@H](COC)Cn1cnc2c(N)nc(N)nc21` [Cmpd 25], the EC50 worked out at 21.3 ± 3.1 µM in [1] (setting [8]), 23.6 ± 2.7 µM in [2] and 4.6 ± 1.8 µM in the data set with HIV-1 [4] (setting [9]). Moreover, the “anti-HIV activity (in words)” value in the data set with HIV-1 [3] is “less active”. Moreover, the CC50 in the data set with MT-2 cells is 22.7 ± 6.8 µM; with Huh 7.5 cells, 91.5 ± 17.8 µM.
In the case of `CCCCCCCCCCCCCCCCCCOCCOP(=O)(O)CO[C@H](COC)Cn1cnc2c(=O)[nH]c(N)nc21` [Cmpd 34, Octadecyloxyethyl (S)-9-[(3-methoxy-2-phosphonomethoxy)propyl]guanine], the EC50 in data set [1] (setting [8]) was determined as 8.26 µM; in data set [2], 10.7 µM; in the data set with HIV-1 [4] (setting [10]) it was 0.2 µM. For the same compound, the “Selectivity Index BM4-5 (1b)” value in data set [1] is given as over 18.2. The “Selectivity Index JFH-1 (2a)” value in [2] is over 14.0. Also, in the data set on HIV-1 [3], the “Selectivity Index” value was 125. Moreover, the CC50 in the data set with MT-2 cells is 25 ± 13 µM.
Turning to `CCCCCCCCCCCCCCCCCCOCCOP(=O)(O)CO[C@@H](COC)Cn1cnc2c(=O)[nH]c(N)nc21` [Cmpd 35, Octadecyloxyethyl (R)-9-[(3-methoxy-2-phosphonomethoxy)propyl]guanine], the half-maximal effective concentration (EC50) in data set [1] (setting [8]) is 12.6 µM; in data set [2], 12.4 µM; in the data set with HIV-1 [4] (setting [10]), under 1e-05 µM. The “Selectivity Index BM4-5 (1b)” value in [1] is over 11.9. For the same compound, the “Selectivity Index JFH-1 (2a)” value in data set [2] is over 12.1. The CC50 in the data set on MT-2 cells is 44 µM; in the data set with Huh 7.5 cells, over 150 µM.
On to `CCCCCCCCCCCCCCCCOCCCOP(=O)(O)CO[C@H](COC)Cn1cnc2c(=O)[nH]c(N)nc21` [Cmpd 36], for which the EC50 was found to be 22 ± 4.97 µM in [1] (setting [8]), 24.8 ± 7 µM in data set [2] and 2.03 ± 0.95 µM in the data set on HIV-1 [4] (setting [10]). In addition, the “activity against HIV-1 in human PBMCs (in words)” value with HIV-1NL43 (listed as HDP-(S)-MPMPG) was “active and selective”; with HIV-1NL43 (listed as hexadecyloxypropyl-(S)-MPMPG), “submicromolar activity”. Also, in the data set on HIV-1 [3], the “anti-HIV activity (in words)” value is “less active”. Further, the CC50 with MT-2 cells was 29.3 ± 3.1 µM; in data set [6] it was over 100 µM; in the data set on Huh 7.5 cells it was over 150 µM.
Regarding `CCCCCCCCCCCCCCCCCCOCCOP(=O)(O)CO[C@H](COC)Cn1ccc(N)nc1=O` [Cmpd 40, Octadecyloxyethyl (S)-1-[(3-methoxy-2-phosphonomethoxy)propyl]cytosine], the “anti-HCV activity (in words)” value in data set [1] (HCV replication in vitro) was “inactive”. Also, the EC50 was over 150 µM in [1] (setting [8]), over 150 µM in data set [2] and 12.7 µM in the data set on HIV-1 [4] (setting [10]). The “activity against HIV-1 in human PBMCs (in words)” value with HIV-1NL43 was “antiviral activity”. The “Selectivity Index” value with HIV-1 [3] is listed as 4.8. The results for the CC50 in the data set with MT-2 cells and with Huh 7.5 cells were 60.7 ± 16 µM and over 150 µM, respectively.
Take `CCCCCCCCCCCCCCCCOCCCOP(=O)(O)CO[C@H](COC)Cn1cnc2c(OC)ncnc21` [Cmpd 43, Hexadecyloxypropyl (S)-9-[(3-methoxy-2-phosphonomethoxy)propyl]-6-methoxypurine]: the EC50 was 8.9 ± 1.22 µM in data set [1] (setting [8]), 8.9 to 12.5 µM in [1] (setting [11]), 12.5 ± 3.36 µM in data set [2] and over 10 µM with HIV-1 [4] (setting [10]). The results for the CC50 in the data set with MT-2 cells and with Huh 7.5 cells were 22 ± 3.5 µM and over 150 µM, respectively.
Regarding `CCCCCCCCCCCCCCCCOCCCOP(=O)(O)CO[C@H](COC)Cn1cnc2c(OC)nc(N)nc21` [Cmpd 44, Hexadecyloxypropyl (S)-9-[(3-methoxy-2-phosphonomethoxy)propyl]-6-O-methylguanine], the EC50 in [1] (setting [8]) was 18.1 ± 0.27 µM; in [1] (setting [11]), 18 to 26 µM; in data set [2], 17.4 ± 0.3 µM; in the data set on HIV-1 [4] (setting [10]), over 10 µM. Moreover, the CC50 in the data set on MT-2 cells is 34.3 ± 7.6 µM; in the data set with Huh 7.5 cells it was over 150 µM.
`COC[C@H](Cn1cnc2c(N)ncnc21)OCP(=O)(O)O` [MPMPA, 9-(S)-[3-methoxy-2-(phosphonomethoxy)propyl]adenine]: the CC50 in data set [7] (cells not given) came to 40 µM. Besides, the EC50 in data set [7] (virus and cells not stated) came to 20 µM.
